Data from patent publication US20260345555A1, “Compositions and Methods for Protecting Salivary Glands from Off-Target Radiation Damage” (University of Rochester, priority 2022, published 2026).
Structures can show the parent of a compound that is named as a salt.

What follows are molecules tested on Reduced glutathione in salivary gland cell clusters (SGm) (assay: Glutathione assay in salivary gland tissue chip, 4 days post-radiation (15 Gy); also first screen of Selleck library at 100 μM). Conditions: dose response, 15 Gy.
Format: cell-based, mouse
Excerpt: (§1) A salivary gland tissue chip was leveraged for high-content drug screening to identify novel radioprotective compounds (Song Y et al., Commun Biol., 2021, 4). The chip platform consists of an array of near-spherical microbubble (MB) cavities formed in poly(dimethylsiloxane) (PDMS). Each chip, containing ~50 MBs, affixed within wells of a 96-well plate (FIG. 1C). Primary salivary gland cell clusters (FIG. 1A), suspended in a poly(ethylene glycol) (PEG) hydrogel precursor and MMP-degradable peptide crosslinker solution together with the photoinitiator LAP, were applied to the chip allowing the clusters to deposit into the MBs (FIG. 1D). In situ polymerization of the hydrogel was achieved using long-wave, low intensity UV light. Over time, the cell clusters aggregate and proliferate to form SGm (FIG. 1C).
The glutathione assay was used to measure glutathione levels at various time points post-radiation to determine the optimal time point for detecting differences between 0 Gy and 15 Gy. Based on the data, the greatest signal separation was measured at 4 days post-irradiation (FIG. 9). This timepoint is similar to previous reports on decreases in glutathione post-radiation and was used for all experiments moving forward (Meeks L et al., Physiological Genomics, 2021, 53: 85-98).
The dose response to WR-1065 was examined to determine effective concentrations of WR-1065 to prevent the reduction of glutathione levels post-radiation. A SGm tissue chip was cultured for 4 days to allow spheres to form. The chip was then treated with WR-1065 30 minutes before and during radiation, followed by drug wash out with media 30 minutes post-radiation (FIG. 2A). This dosing scheme is consistent with the use of Amifostine clinically and with previous work. The glutathione assay was performed at 4 days post-radiation (FIG. 2A). […] Moreover, it is clinically relevant as 15-30 minutes before radiation, patients are administered Amifostine intravenously at 200 mg/m (Escobar A et al., IntechOpen, 2019, pp. 15-37; Eisbruch A, J Clin Oncol, 2011, 29: 119-121; Bardet, E. et al. Semin Oncol, 2002, 29, 57-60). Assuming an average adult body surface area of 17,000 cm^2 and a blood volume of 1.35 gallons (5.1 liters), Amifostine is administered at 300 μM (Mosteller, R. D. N Engl J Med 317, 1098 (1987)).
The glutathione and senescence assays were used to screen a library of FDA-approved drugs (Selleck Chemicals) at 100 μM. Drugs were first screened using the glutathione assay according to the timeline depicted in FIG. 2A. Any compound resulting in statistically similar glutathione levels compared to 0 Gy control was considered a hit (FIG. 4, grey circles). Hits with the glutathione assay were then tested with the senescence assay and considered a “double hit” if senescence levels were statistically similar to levels at 0 Gy (FIG. 4, black circles). […] While this hit rate is higher than many other drug screening reports (0.1-0.3%), this may be due to the statistical rigor afforded by the tissue chip format (Blanchard, C et al., Antimicrob Agents Chemother 2016, 60, 862-872; Colquhoun, J. M et al., Antibiotics (Basel) 2019, 8, 48). Additionally, phenotypic screens generally have higher hit rates than target-based screens (>1%) (Moffat, J. G et al., Nature Reviews Drug Discovery 2017, 16, 531-543; Rottman, M et al., Science 2010, 329, 1175-1180).
Mice were euthanized and the submandibular glands (SMG) were removed and chopped with a razor blade for 5 min. The tissue was then incubated in Hank's buffered salt solution (HBSS) containing 15 mM HEPES, 50 U/mL collagenase type II (Thermo Fischer 17101015), and 100 U/mL hyaluronidase (Sigma Aldrich H3506) at 37 °C for 30 min. Cells were centrifuged, then resuspended in HBSS with 15 mM HEPES and passed through 100 μm and 20 μm mesh filters to isolate clusters between 20-100 μm. The digestion protocol produces cell cluster sizes evenly distributed between 20 to 100 μm (Song, Y et al., Advanced Healthcare Materials). […]
In the case of `CC/C(=C(/CC)c1ccc(O)cc1)c1ccc(O)cc1` [Diethylstilbestrol (Stilbestrol)], the “concentration range of radioprotection, glutathione assay” value is reported as 10 to 100 µM.

Same assay, conditions: first screen of Selleck library at 100 μM, 15 Gy, 4 days post-radiation
`CC/C(=C(/CC)c1ccc(O)cc1)c1ccc(O)cc1` [Diethylstilbestrol (Stilbestrol)] was tested, and the “Glutathione normalized mean intensity” value was 0.8894. For `[I-].[K+]` [Potassium iodide], the “Glutathione normalized mean intensity” value was 0.386. With `CN(C)CCOC(c1ccccc1)c1ccccc1` [Diphenhydramine HCl (Benadryl)] the “Glutathione normalized mean intensity” value was 0.6149. `NC(=O)NO` [Hydroxyurea (Cytodrox)] was tested, and the “Glutathione normalized mean intensity” value was 0.4236. In the case of `CC(N)C12CC3CC(CC(C3)C1)C2` (stereo not drawn) [Rimantadine (Flumadine)], the “Glutathione normalized mean intensity” value is reported as 0.3987. With `O=C1c2ccccc2C(=O)C1c1ccccc1` [Phenindione (Rectadione)] the “Glutathione normalized mean intensity” value was 0.6802. `Nc1nc(N)nc(-c2cc(Cl)ccc2Cl)n1` [Irsogladine] was tested, and the “Glutathione normalized mean intensity” value was 0.613. For `CCCOc1ccc(C(=O)OCCN(CC)CC)cc1N` [Proparacaine HCl], the “Glutathione normalized mean intensity” value was 0.7045. In the case of `CNC(=C[N+](=O)[O-])NCCSCc1csc(CN(C)C)n1` [Nizatidine], the “Glutathione normalized mean intensity” value is reported as 0.5754. In the case of `C[C@@](Cc1ccc(O)c(O)c1)(NN)C(=O)O` [Carbidopa], the “Glutathione normalized mean intensity” value is reported as 0.5325. `COc1ccc(C(=O)CC(=O)c2ccc(C(C)(C)C)cc2)cc1` [Avobenzone (Parsol 1789)] was tested, and the “Glutathione normalized mean intensity” value was 0.5309. In the case of `Oc1c(Cl)cc(Cl)c2cccnc12` [Chloroxine], the “Glutathione normalized mean intensity” value is reported as 0.1604. In the case of `CCC(C)(C)C(=O)O[C@H]1C[C@@H](C)C=C2C=C[C@H](C)[C@H](CC[C@@H]3C[C@@H](O)CC(=O)O3)[C@H]21` [Simvastatin (Zocor)], the “Glutathione normalized mean intensity” value is reported as 0.1568. For `CN(C)C(=N)N=C(N)N` [Metformin hydrochloride (Glucophage)], the “Glutathione normalized mean intensity” value was 0.6991. `O=C(O)Cc1ccccc1Nc1c(Cl)cccc1Cl` [Diclofenac] was tested, and the “Glutathione normalized mean intensity” value was 0.334. In the case of `CNC(=C[N+](=O)[O-])NCCSCc1ccc(CN(C)C)o1` [Ranitidine (Zantac)], the “Glutathione normalized mean intensity” value is reported as 0.4295. `OCCN(CCO)c1nc(N2CCCCC2)c2nc(N(CCO)CCO)nc(N3CCCCC3)c2n1` [Dipyridamole (Persantine)] was tested, and the “Glutathione normalized mean intensity” value was 0.5847. For `O=c1[nH]c(=O)n([C@H]2C[C@H](O)[C@@H](CO)O2)cc1I` [Idoxuridine], the “Glutathione normalized mean intensity” value was 0.7701. For `CN(C)c1ccc(C(=C2C=CC(=[N+](C)C)C=C2)c2ccc(N(C)C)cc2)cc1` [Crystal violet], the “Glutathione normalized mean intensity” value was 0.1262. In the case of `Cc1cccc(C)c1NC(=O)CN1CCCC1=O` [Nefiracetam (Translon)], the “Glutathione normalized mean intensity” value is reported as 0.6824. In the case of `CCCOc1ccc2nc(NC(=O)OC)[nH]c2c1` [Oxibendazole], the “Glutathione normalized mean intensity” value is reported as 0.747. `Nc1ncnc2c1ncn2[C@@H]1O[C@H](CO)[C@@H](O)[C@@H]1O` [Vidarabine (Vira-A)] was tested, and the “Glutathione normalized mean intensity” value was 0.3742. For Bacitracin zinc, the “Glutathione normalized mean intensity” value was 0.6175. For `c1ccc([C@H]2CN3CCSC3=N2)cc1` [Levamisole Hydrochloride (Ergamisol)], the “Glutathione normalized mean intensity” value was 0.8181. In the case of `COCCc1ccc(OCC(O)CNC(C)C)cc1` (stereo not drawn) [Metoprolol tartrate], the “Glutathione normalized mean intensity” value is reported as 0.829. `C[C@@H]1CN(c2c(F)c(N)c3c(=O)c(C(=O)O)cn(C4CC4)c3c2F)C[C@H](C)N1` [Sparfloxacin] was tested, and the “Glutathione normalized mean intensity” value was 0.7607. With `NNC(=O)c1ccncc1` [Isoniazid (Tubizid)] the “Glutathione normalized mean intensity” value was 0.3683. `CC(C)(S)[C@@H](N)C(=O)O` [Penicillamine (Cuprimine)] was tested, and the “Glutathione normalized mean intensity” value was 0.7681. With `COc1cc([C@@H]2c3cc4c(cc3[C@@H](O[C@@H]3O[C@@H]5CO[C@@H](c6cccs6)O[C@H]5[C@H](O)[C@H]3O)[C@H]3COC(=O)[C@H]23)OCO4)cc(OC)c1O` [Teniposide (Vumon)] the “Glutathione normalized mean intensity” value was 0.4095. `Clc1ccc(CCC(Cn2ccnc2)Sc2c(Cl)cccc2Cl)cc1` (stereo not drawn) [Butoconazole nitrate] was tested, and the “Glutathione normalized mean intensity” value was 0.6197. With `CC(C)n1c(/C=C/[C@H](O)C[C@H](O)CC(=O)O)c(-c2ccc(F)cc2)c2ccccc21` (racemic) [Fluvastatin sodium (Lescol)] the “Glutathione normalized mean intensity” value was 0.5791. With `CC1(C)[C@H](C(=O)O)N2C(=O)C[C@H]2S1(=O)=O` [Sulbactam] the “Glutathione normalized mean intensity” value was 0.6491.

Same assay, conditions: nonlinear fit in Prism of dose response curves, 15 Gy
`CC/C(=C(/CC)c1ccc(O)cc1)c1ccc(O)cc1` [Diethylstilbestrol (Stilbestrol)] was tested, and the “Estimated EC50, Glutathione” value was 0.7 µM.

Each molecule was assayed on senescence-associated β-galactosidase in salivary gland cell clusters (SGm) (assay: Cellular senescence assay (SPiDER-βGal) in salivary gland tissue chip, 5 days post-radiation (15 Gy); also second screen of library hits at 100 μM). Conditions: dose response, 15 Gy.
Format: cell-based, mouse
Excerpt: as §1, with “The” for “A salivary gland tissue chip was leveraged for high-content drug screening to identify novel radioprotective compounds (Song Y et al., Commun Biol., 2021, 4). The”
For senescence, a protocol similar to the glutathione assay was followed to determine the optimal time point post-radiation for detecting a change in senescence between 0 Gy and 15 Gy, as measured by senescence-associated β-galactosidase activity.
The glutathione and senescence assays were used to screen a library of FDA-approved drugs (Selleck Chemicals) at 100 μM. Drugs were first screened using the glutathione assay according to the timeline depicted in FIG. 2A. […] Hits with the glutathione assay were then tested with the senescence assay and considered a “double hit” if senescence levels were statistically similar to levels at 0 Gy (FIG. 4, black circles).
Mice were euthanized and the submandibular glands (SMG) were removed and chopped with a razor blade for 5 min. […] Cells were centrifuged, then resuspended in HBSS with 15 mM HEPES and passed through 100 μm and 20 μm mesh filters to isolate clusters between 20-100 μm. […] The isolated clusters were combined with hydrogel precursor solution and seeded in MB array-based chips as described below.
The cell/gel precursor solution (25 μL for 48 well; 20 μL for 96 well) was pipetted onto the MB chips and incubated for 30 min, pipetting every 10 min to redisperse cells that had settled onto the surface of the chip.
A cellular senescence assay for the chips was developed by adapting the Cellular Senescence Detection Kit—SPiDER-βGal (Dojindo Molecular Technologies, Inc. SG04). Bafilomycin A1 and SPiDER-βGal stock solutions were prepared in DMSO per manufacturer directions. The assay was performed by first incubating the chips with bafilomycin A1 (1:1000 dilution in media) for 1 hr at 37 °C. […] Chips were washed twice with media and imaged using a fluorescence microscope with a Texas Red filter (Excitation: 580 nm; Emission: 604 nm).
For radioprotection experiments, SGm were cultured in MB-hydrogel chips for 4 days, then drugs were added to the chips 30 min prior to irradiation and washed out with media 30 min post-radiation treatment. […] The glutathione and senescence assays were performed at 4- and 5-days post-radiation. For assay validation experiments, at least 3 chips (N=3) were used for each drug, corresponding to >100 MBs (n>100); these values are listed in the figure description for each experiment. Mean, standard deviation, and statistics were calculated based on the number of MBs (n).
For screening of the Selleck Chemicals compound library, the same treatment scheme was used, with drugs administered at 100 μM. One MB chip (N=1) was used per compound, with ~40-50 MBs per chip […]; statistics were calculated using the number of MBs (n) and compared to 0 Gy controls.
For both the glutathione and cellular senescence assays, images were quantified in ImageJ.
With `CC/C(=C(/CC)c1ccc(O)cc1)c1ccc(O)cc1` [Diethylstilbestrol (Stilbestrol)] the “concentration range of radioprotection, senescence assay” value was 50 to 100 µM.

Same assay, conditions: glutathione and senescence assays, 100 μM, statistically similar to 0 Gy
In the case of `CO[C@H]1/C=C/O[C@@]2(C)Oc3c(C)c(O)c4c(O)c(c(/C=N/N5CCN(C)CC5)c(O)c4c3C2=O)NC(=O)/C(C)=C\C=C\[C@H](C)[C@H](O)[C@@H](C)[C@@H](O)[C@@H](C)[C@H](OC(C)=O)[C@@H]1C` [Rifampin], the “double hit in the drug screen” value is reported as “double hits”. For `CO[C@H]1/C=C/O[C@@]2(C)Oc3c(C)c(O)c4c(c3C2=O)C2=NC3(CCN(CC(C)C)CC3)NC2=C(NC(=O)/C(C)=C\C=C\[C@H](C)[C@H](O)[C@@H](C)[C@@H](O)[C@@H](C)[C@H](OC(C)=O)[C@@H]1C)C4=O` [Rifabutin (Mycobutin)], the “double hit in the drug screen” value was “double hits”.

Same assay, conditions: nonlinear fit in Prism of dose response curves, 15 Gy
In the case of `CC/C(=C(/CC)c1ccc(O)cc1)c1ccc(O)cc1` [Diethylstilbestrol (Stilbestrol)], the “Estimated EC50, Senescence” value is reported as 37.7 µM.

Same assay, conditions: second screen of library hits at 100 μM, 15 Gy, 5 days post-radiation; only drugs nonsignificant compared to 0 Gy in the glutathione assay
For `CC/C(=C(/CC)c1ccc(O)cc1)c1ccc(O)cc1` [Diethylstilbestrol (Stilbestrol)], the “Senescence normalized mean intensity” value was 0.8812.
